Measured values reported in patent US20240182893A1, “INHIBITION OF FGR REDUCES FIBROSIS” (UNIVERSITY OF PITTSBURGH-OF THE COMMONWEALTH SYSTEM OF …, priority 2021, published 2024).
“Also recorded” adds a separate entry of the source.

Tests used:
[1] = test system: mouse model of radiation-induced pulmonary fibrosis; assay: Mouse model of radiation-induced pulmonary fibrosis (18 Gy), qPCR and staining of lungs; assay type: in vivo
Description: FIG. 47. […] Relative mRNA expression of profibrotic genes (Tgf-β, Ctgf, Collagen 1a1, Collagen 3 and Collagen 4), senescence biomarkers (p16 and p21) and tyrosine kinase Fgr was evaluated by qPCR from one lobe of mouse lungs in control, irradiated and treated with Fgr inhibitor TL02-59 post irradiation. Briefly, Mice were irradiated (18 Gy), and TL02-59 treated (10 mg/kg), 3/week at day 75 for 4 weeks. (n=4-13). Statistics was performed, and individual p values were calculated by unpaired t-test.
FIG. 48. Expression of Fgr and p16 from mouse lungs in control, irradiated, and treated with Fgr inhibitor TL02-59 post irradiation. […] Insets on the right from each group were magnified for clarity.
FIG. 47. […] Relative mRNA expression of profibrotic genes (Tgf-β, Ctgf, Collagen 1a1, Collagen 3 and Collagen 4), senescence biomarkers (p16 and p21) and tyrosine kinase Fgr was evaluated by qPCR from one lobe of mouse lungs in control, irradiated and treated with Fgr inhibitor TL02-59 post irradiation. Briefly, Mice were irradiated (18 Gy), and TL02-59 treated (10 mg/kg), 3/week at day 75 for 4 weeks. (n=4-13), Statistics was performed, and individual p values were calculated by unpaired t-test.

Fgr = Fgr (Homo sapiens, UniProt P09769); settings: cited from earlier work
other similar kinases = settings: cited from earlier work
[2] = test system: target C57BL/6 stromal cells; assay: Non-contact transwell coculture: irradiated senescent tdTOMp16+ stromal cells on top, target cells at bottom, RT-qPCR of profibrotic genes; assay type: cell-based, mouse
Description: It was also confirmed that the RIS cells showing upregulation of Fgr RNA by heat map also had higher RNA levels. Validation of RNA for p16 and p21, as well as Fgr was carried out (FIG. 5A-FIG. 5C). To establish that irradiated tdTOMp16+ senescent cells induce profibrotic genes, a C57BL/6 target cell line, and a noncontact transwell co-culture system was used (FIG. 6A). Irradiated red cells were compared to 0 Gy or irradiated non-red cells. Sorted red cells, were placed on the top of each well and C57/B6 mouse stromal target cells were plated at the bottom well and observed for two weeks. There was significant induction of collagen 1al and collagen 3 in C57/B6 target cells by RIS red cells (FIG. 6B-FIG. 6C). […] (FIG. 6D).
Transwell experiment: Control and Fgr knockdown stable cell lines were irradiated with 5 Gy by Cesium Gamma Cell dose rate 300 cGy/min. Ten days after radiation, red senescent and non-red non-senescent cells were sorted using MoFlo Astrios Cell Sorter (Beckman Coulter). Senescent and non-senescent cells were plated on the top well of the transwell with a […] pore size (Coster, Cat. No. 3412) and the target C57BL/6 cell line for the evaluation of fibrotic markers was plated at the bottom. 2 weeks later total RNA was extracted from the target C57BL/6 cells and evaluated by qPCR for Collagen 3 (Mm01254476_m1) and TGF-beta (Mm01191861_m1). GAPDH (Mm99999915_g1) was used as the loading control.
Transwell coculture experiments. A Transwell system (0.4-μm pore size, polyester membrane; Corning, Kennebunk, ME) was used (Ejaz A et al. Stem Cells. 2019, 37, 791-802). C57BL/6 mouse bone marrow stromal cells or mouse primary tail fibroblasts were cultured in the bottom surface of a 9-cm^2 culture dishes. Above the adherent layer in the transwell, tdTOMp16+ bone marrow stromal cells (non-irradiated, irradiated non-sorted, irradiated, and sorted senescent tdTOM+, or irradiated non-senescent tdTOM− cells) were cultured in the upper transwell. […] For the stable Fgr shRNA cells, non-target control and Fgr shRNA knockdown cell lines were also irradiated and sorted following the same protocol. Briefly, tdTOMp16+ cells were irradiated and after 10 days of radiation, the cells were FACS sorted for tdTOM+ and tdTOM− cells and 3×10^5 cells added on the top wells in each case. Coculture was maintained for another 10 days. The target cells from the bottom well were lysed, and total RNA was isolated using TRizol (Sigma) reagent following the manufacturer's protocol. cDNA was synthesized, and expression of profibrotic genes (TGF-β1, CTGF, collagens (Col1, Col3), and α-SMA were analyzed using gene-specific TaqMan primers employing quantitative real-time polymerase chain reaction (PCR).
In vitro transwell experiments. Senescent bone marrow derived irradiated (5 Gy, subconfluent cultures held for 10 days) tdTOMp16+ cells were sorted for TOM+ (red) color and placed in Transwell cultures. Two types of transwell experiments were carried out. For induction of fibrosis biomarkers in target cells, senescent cells were placed into the top chamber separated from target mesenchymal stem cells (MSCs) derived from the adherent layer of long term C57Bl/6 mouse bone marrow cultures in the bottom chamber by a 0.4-micron pore size membrane. […] The migration of gfp+ cells through the filter to the bottom compartment was measured by imaging the bottom wells and counting gfp+ cells relative to numbers of senescent TOM+ (red) cells. […]

[3] = mice; cited from earlier work
[4] = test system: tdTOMp16+ red senescent cells; assay: Chemokine array of media from sorted senescent tdTOMp16+ cells; assay type: cell-based, mouse; settings: TL02-59 10 nM, 72 hours, FIG. 50
Description: FIG. 50. […] Using chemokine array relative amounts of chemokines secreted in the media was measured. (n=2, *, p<0.05, p values were calculated using unpaired t-test).

[5] = 10 nM TL02-59, 10 days, FIG. 23

Sequence of Fgr (P09769 whole entry, species assumed): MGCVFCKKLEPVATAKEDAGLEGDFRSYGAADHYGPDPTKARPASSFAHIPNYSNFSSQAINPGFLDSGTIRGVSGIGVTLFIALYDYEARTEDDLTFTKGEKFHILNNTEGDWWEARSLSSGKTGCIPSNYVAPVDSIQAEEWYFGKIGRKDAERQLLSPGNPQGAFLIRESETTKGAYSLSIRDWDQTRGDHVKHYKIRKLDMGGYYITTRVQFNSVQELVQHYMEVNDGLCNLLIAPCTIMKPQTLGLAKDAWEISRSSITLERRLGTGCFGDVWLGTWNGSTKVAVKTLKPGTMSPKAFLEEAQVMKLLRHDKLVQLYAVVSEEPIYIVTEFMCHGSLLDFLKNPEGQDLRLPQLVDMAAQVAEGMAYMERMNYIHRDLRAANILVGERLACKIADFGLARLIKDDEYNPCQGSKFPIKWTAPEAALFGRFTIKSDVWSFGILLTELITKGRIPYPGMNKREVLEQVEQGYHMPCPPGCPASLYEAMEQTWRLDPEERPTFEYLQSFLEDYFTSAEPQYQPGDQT

In the case of CCN1CCN(Cc2ccc(NC(=O)c3ccc(C)c(Oc4ncnc5cc(OC)c(OC)cc45)c3)cc2C(F)(F)F)CC1 [TL02-59], the “relative mRNA expression of profibrotic genes (Tgf-β, Ctgf, Collagen 1a1, Collagen 3, Collagen 4), senescence biomarkers (p16, p21) and Fgr in lungs (qPCR)” value ([1]; 18 Gy, TL02-59 10 mg/kg, 3/week at day 75 for 4 weeks, FIG. 47) is given as “reduces profibrotic and biomarkers of senescence”, the “expression of Fgr and p16 proteins in mouse lungs (images)” value ([1]; irradiated, TL02-59 post irradiation, FIG. 48) is given as “led to a reduction of both the proteins” and the “kinases inhibited at 10 nM concentration” value (Fgr; 10 nM) is given as “inhibits only Fgr”. The “concentration with complete inhibition of Fgr” value (Fgr) was “above 10 nM”, the “concentration with partial inhibition of Fgr” value (Fgr) was 0.1 to 1 nM and the “selectivity for Fgr over other kinases” value (Fgr) was “remarkably selective for Fgr; also recorded: Fgr specific in the nanomolar concentration”. For the same compound, the “concentration required for inhibition of other similar kinases” value (other similar kinases) was 100 to 1000 nM, the “induction of TGF-beta in target cells by tdTOM+ senescent cells (RT-qPCR)” value [2, 5] was “significantly inhibited induction; also recorded: abrogates the induction of profibrotic genes” and the “induction of collagen 3 in target cells by tdTOM+ senescent cells (RT-qPCR)” value [2, 5] was “significantly inhibited induction; also recorded: abrogates the induction of profibrotic genes”. For the same compound, the “induction of fibrosis biomarkers TGF-β and Collagen 3 in target mesenchymal stem cells” value ([2]; TL02-59 10 nM, 10 days, FIG. 44) was “blocked; also recorded: inhibits the induction”, the “induction of collagen 3 in target cells by RIS red cells” value ([2]; TL02-59 1 μm, transwell, after 2 weeks, FIG. 6D) was “reduced the induction of collagen 3; also recorded: blocks senescent cell induction” and the “induction of biomarkers of fibrosis (collagen 1a1, collagen 3, TGF-β) in target cells by RIS cells” value ([2]; transwell co-culture, tdTOMp16+ stromal cell line) was “abrogates the induction of biomarkers of fibrosis; also recorded: abrogated senescent cell induction of profibrotic genes”. The oral bioavailability [3] was “orally bioavailable”, the plasma half-life [3] was 6 h and the “secretion of senescence associated secretory chemokines (chemokine array)” value [4] was “reduces secretion of senescence associated secretory chemokines”.
